# Patent publication US20110040086A1, “Novel Beta-Lactam Antibiotics, Methods for Their Production, and Their Use” (DRITTE PATENTPORTFOLIO BETEILIGUNGSGESELLSCHAFT MB, priority 2007, published 2011)
# Tests used:
# [1] = test system: Enterococcus faecalis 769; assay: agar diffusion test (Test System II, multi-resistant germs); assay type: cell-based; parameters: key: r = resistant (no detectable zone of inhibition)
# Summary of the method: (§1)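 A McFarland 0.5 bacterial suspension in physiological saline is spread vertically, horizontally and transversely over Müller-Hinton agar II. Three sensi-discs bearing 10, 50 and 100 μg of test compound go onto each plate, which then incubates at 37 °C for 18-20 h before zone diameters are recorded.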
# [2] = test system: Staphylococcus aureus 315; assay: as above; assay type: cell-based; parameters: key: r = resistant (no detectable zone of inhibition)
# Summary of the method: as §1
# E. faecalis 945 = assay: as above; assay type: cell-based, Enterococcus faecalis; parameters: key: r = resistant (no detectable zone of inhibition)
# Summary of the method: as §1
# S. aureus 33490 = assay: as above; assay type: cell-based, Staphylococcus aureus; parameters: key: r = resistant (no detectable zone of inhibition)
# Summary of the method: as §1
# S. aureus 34289 = assay: as above; assay type: cell-based, Staphylococcus aureus; parameters: key: r = resistant (no detectable zone of inhibition)
# Summary of the method: as §1
# S. aureus 36881 = assay: as above; assay type: cell-based, Staphylococcus aureus; parameters: key: r = resistant (no detectable zone of inhibition)
# Summary of the method: as §1
# S. aureus 39105 = assay: as above; assay type: cell-based, Staphylococcus aureus; parameters: key: r = resistant (no detectable zone of inhibition)
# Summary of the method: as §1
# S. aureus 520 = assay: as above; assay type: cell-based, Staphylococcus aureus; parameters: key: r = resistant (no detectable zone of inhibition)
# Summary of the method: as §1
# S. aureus 526 = assay: as above; assay type: cell-based, Staphylococcus aureus; parameters: key: r = resistant (no detectable zone of inhibition)
# Summary of the method: as §1
# [3] = test system: S. aureus North Germany strain; assay: as above; assay type: cell-based, Staphylococcus aureus; parameters: key: r = resistant (no detectable zone of inhibition)
# Summary of the method: as §1
# S. aureus 38418 = assay: as above; assay type: cell-based, Staphylococcus aureus
# Summary of the method: as §1
# S. aureus ATCC 6538 = assay: as above; assay type: cell-based, Staphylococcus aureus
# Summary of the method: as §1
# S. epidermidis 1068 = assay: as above; assay type: cell-based, Staphylococcus epidermidis; parameters: key: r = resistant (no detectable zone of inhibition)
# Summary of the method: as §1
# S. epidermidis 1071 = assay: as above; assay type: cell-based, Staphylococcus epidermidis; parameters: key: r = resistant (no detectable zone of inhibition)
# Summary of the method: as §1
# S. epidermidis 563 = assay: as above; assay type: cell-based, Staphylococcus epidermidis; parameters: key: r = resistant (no detectable zone of inhibition)
# Summary of the method: as §1
# S. epidermidis 847 = assay: as above; assay type: cell-based, Staphylococcus epidermidis; parameters: key: r = resistant (no detectable zone of inhibition)
# Summary of the method: as §1
# S. epidermidis 125 = assay: as above; assay type: cell-based, Staphylococcus epidermidis
# Summary of the method: as §1
# [4] = test system: Staphylococcus aureus ATCC 6538; assay: mouse infected with Staphylococcus aureus infection model (survival); assay type: in vivo, BALB/c mice
# Summary of the method: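 Survival model: S. aureus grown to extinction 0.6 at 550 nm and injected i.p. (10 μl/g body weight) into cyclophosphamide-pretreated BALB/c mice (250 then 100 mg/kg i.p.), ≥3 animals per arm. Test antibiotic dosed i.p. at 30 min and again later at the same concentration, vehicle PBS/3% DMSO.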
substance,measurement,setting,value
"7-[2-(2-carbamoyl-3,6-dioxocyclohexa-1,4-dienylamino)-2-(4-hydroxyphenyl)-acetylamino]-desacetoxycephalosporanic acid [1b]",Diameter of zone of inhibition,[1]; Quantity n 0.019,r
same,Diameter of zone of inhibition,[1]; Quantity n 0.1,r
same,Diameter of zone of inhibition,[1]; Quantity n 0.19,r
same,Diameter of zone of inhibition,[2]; Quantity n 0.019,r
same,Diameter of zone of inhibition,[2]; Quantity n 0.1,r
same,Diameter of zone of inhibition,[2]; Quantity n 0.19,8 mm
same,Diameter of zone of inhibition,E. faecalis 945; Quantity n 0.019,r
same,Diameter of zone of inhibition,E. faecalis 945; Quantity n 0.1,r
same,Diameter of zone of inhibition,E. faecalis 945; Quantity n 0.19,r
same,Diameter of zone of inhibition,S. aureus 33490; Quantity n [μmol] 0.019,r
same,Diameter of zone of inhibition,S. aureus 33490; Quantity n [μmol] 0.1,14 mm
same,Diameter of zone of inhibition,S. aureus 33490; Quantity n [μmol] 0.19,20 mm
same,Diameter of zone of inhibition,S. aureus 34289; Quantity n [mol] 0.019,r
same,Diameter of zone of inhibition,S. aureus 34289; Quantity n [mol] 0.1,r
same,Diameter of zone of inhibition,S. aureus 34289; Quantity n [mol] 0.19,12 mm
same,Diameter of zone of inhibition,S. aureus 36881; Quantity n 0.019,r
same,Diameter of zone of inhibition,S. aureus 36881; Quantity n 0.1,12 mm
same,Diameter of zone of inhibition,S. aureus 36881; Quantity n 0.19,18 mm
same,Diameter of zone of inhibition,S. aureus 39105; Quantity n 0.019,r
same,Diameter of zone of inhibition,S. aureus 39105; Quantity n 0.1,12 mm
same,Diameter of zone of inhibition,S. aureus 39105; Quantity n 0.19,18 mm
same,Diameter of zone of inhibition,S. aureus 520; Quantity n [mol] 0.019,r
same,Diameter of zone of inhibition,S. aureus 520; Quantity n [mol] 0.1,r
same,Diameter of zone of inhibition,S. aureus 520; Quantity n [mol] 0.19,r
same,Diameter of zone of inhibition,S. aureus 526; Quantity n 0.019,r
same,Diameter of zone of inhibition,S. aureus 526; Quantity n 0.1,r
same,Diameter of zone of inhibition,S. aureus 526; Quantity n 0.19,12 mm
same,Diameter of zone of inhibition,[3]; Quantity n 0.019,r
same,Diameter of zone of inhibition,[3]; Quantity n 0.1,8 mm
same,Diameter of zone of inhibition,[3]; Quantity n 0.19,12 mm
same,Diameter of zone of inhibition,S. aureus 38418; Quantity n [mol] 0.019,16 mm
same,Diameter of zone of inhibition,S. aureus 38418; Quantity n [mol] 0.1,24 mm
same,Diameter of zone of inhibition,S. aureus 38418; Quantity n [mol] 0.19,26 mm
same,Diameter of zone of inhibition,S. aureus ATCC 6538; Quantity n 0.019,16 mm
same,Diameter of zone of inhibition,S. aureus ATCC 6538; Quantity n 0.1,24 mm
same,Diameter of zone of inhibition,S. aureus ATCC 6538; Quantity n 0.19,28 mm
same,Diameter of zone of inhibition,S. epidermidis 1068; Quantity n 0.019,r
same,Diameter of zone of inhibition,S. epidermidis 1068; Quantity n 0.1,16 mm
same,Diameter of zone of inhibition,S. epidermidis 1068; Quantity n 0.19,20 mm
same,Diameter of zone of inhibition,S. epidermidis 1071; Quantity n 0.019,r
same,Diameter of zone of inhibition,S. epidermidis 1071; Quantity n 0.1,18 mm
same,Diameter of zone of inhibition,S. epidermidis 1071; Quantity n 0.19,22 mm
same,Diameter of zone of inhibition,S. epidermidis 563; Quantity n 0.019,r
same,Diameter of zone of inhibition,S. epidermidis 563; Quantity n 0.1,14 mm
same,Diameter of zone of inhibition,S. epidermidis 563; Quantity n 0.19,20 mm
same,Diameter of zone of inhibition,S. epidermidis 847; Quantity n [mol] 0.019,r
same,Diameter of zone of inhibition,S. epidermidis 847; Quantity n [mol] 0.1,10 mm
same,Diameter of zone of inhibition,S. epidermidis 847; Quantity n [mol] 0.19,12 mm
same,Diameter of zone of inhibition,S. epidermidis 125; Quantity n 0.019,14 mm
same,Diameter of zone of inhibition,S. epidermidis 125; Quantity n 0.1,22 mm
same,Diameter of zone of inhibition,S. epidermidis 125; Quantity n 0.19,26 mm
same,Survival/tested mice n/n,[4]; 2 × 1.0 mg (50 mg/kg) i.p.,6/6
"7-[2-(2-ethoxycarbonyl-3,6-dioxocyclohexa-1,4-dienylamino)-2-(4-hydroxyphenyl)-acetylamino]-desacetoxycephalosporanic acid [1d]",Diameter of zone of inhibition,[1]; Quantity n 0.029,r
same,Diameter of zone of inhibition,[1]; Quantity n 0.14,r
same,Diameter of zone of inhibition,[1]; Quantity n 0.29,r
same,Diameter of zone of inhibition,[2]; Quantity n 0.029,r
same,Diameter of zone of inhibition,[2]; Quantity n 0.14,r
same,Diameter of zone of inhibition,[2]; Quantity n 0.29,8 mm
same,Diameter of zone of inhibition,E. faecalis 945; Quantity n 0.029,r
same,Diameter of zone of inhibition,E. faecalis 945; Quantity n 0.14,r
same,Diameter of zone of inhibition,E. faecalis 945; Quantity n 0.29,r
same,Diameter of zone of inhibition,S. aureus 33490; Quantity n [μmol] 0.029,r
same,Diameter of zone of inhibition,S. aureus 33490; Quantity n [μmol] 0.14,14 mm
same,Diameter of zone of inhibition,S. aureus 33490; Quantity n [μmol] 0.29,16 mm
same,Diameter of zone of inhibition,S. aureus 34289; Quantity n [mol] 0.029,r
same,Diameter of zone of inhibition,S. aureus 34289; Quantity n [mol] 0.14,r
same,Diameter of zone of inhibition,S. aureus 34289; Quantity n [mol] 0.29,r
same,Diameter of zone of inhibition,S. aureus 36881; Quantity n 0.029,r
same,Diameter of zone of inhibition,S. aureus 36881; Quantity n 0.14,14 mm
same,Diameter of zone of inhibition,S. aureus 36881; Quantity n 0.29,18 mm
same,Diameter of zone of inhibition,S. aureus 39105; Quantity n 0.029,r
same,Diameter of zone of inhibition,S. aureus 39105; Quantity n 0.14,r
same,Diameter of zone of inhibition,S. aureus 39105; Quantity n 0.29,14 mm
same,Diameter of zone of inhibition,S. aureus 520; Quantity n [mol] 0.029,r
same,Diameter of zone of inhibition,S. aureus 520; Quantity n [mol] 0.14,r
same,Diameter of zone of inhibition,S. aureus 520; Quantity n [mol] 0.29,r
same,Diameter of zone of inhibition,S. aureus 526; Quantity n 0.029,r
same,Diameter of zone of inhibition,S. aureus 526; Quantity n 0.14,r
same,Diameter of zone of inhibition,S. aureus 526; Quantity n 0.29,r
same,Diameter of zone of inhibition,[3]; Quantity n 0.029,r
same,Diameter of zone of inhibition,[3]; Quantity n 0.14,10 mm
same,Diameter of zone of inhibition,[3]; Quantity n 0.29,12 mm
same,Diameter of zone of inhibition,S. aureus 38418; Quantity n [mol] 0.029,10 mm
same,Diameter of zone of inhibition,S. aureus 38418; Quantity n [mol] 0.14,20 mm
same,Diameter of zone of inhibition,S. aureus 38418; Quantity n [mol] 0.29,24 mm
same,Diameter of zone of inhibition,S. aureus ATCC 6538; Quantity n 0.029,14 mm
same,Diameter of zone of inhibition,S. aureus ATCC 6538; Quantity n 0.14,22 mm
same,Diameter of zone of inhibition,S. aureus ATCC 6538; Quantity n 0.29,26 mm
same,Diameter of zone of inhibition,S. epidermidis 1068; Quantity n 0.029,r
same,Diameter of zone of inhibition,S. epidermidis 1068; Quantity n 0.14,12 mm
same,Diameter of zone of inhibition,S. epidermidis 1068; Quantity n 0.29,14 mm
same,Diameter of zone of inhibition,S. epidermidis 1071; Quantity n 0.029,r
same,Diameter of zone of inhibition,S. epidermidis 1071; Quantity n 0.14,14 mm
same,Diameter of zone of inhibition,S. epidermidis 1071; Quantity n 0.29,18 mm
same,Diameter of zone of inhibition,S. epidermidis 563; Quantity n 0.029,r
same,Diameter of zone of inhibition,S. epidermidis 563; Quantity n 0.14,12 mm
same,Diameter of zone of inhibition,S. epidermidis 563; Quantity n 0.29,18 mm
same,Diameter of zone of inhibition,S. epidermidis 847; Quantity n [mol] 0.029,r
same,Diameter of zone of inhibition,S. epidermidis 847; Quantity n [mol] 0.14,10 mm
same,Diameter of zone of inhibition,S. epidermidis 847; Quantity n [mol] 0.29,14 mm
same,Diameter of zone of inhibition,S. epidermidis 125; Quantity n 0.029,10 mm
same,Diameter of zone of inhibition,S. epidermidis 125; Quantity n 0.14,20 mm
same,Diameter of zone of inhibition,S. epidermidis 125; Quantity n 0.29,24 mm
same,Survival/tested mice n/n,[4]; 2 × 0.5 mg (25 mg/kg) i.p.,4/6
